We go through one compound from PMC4336141, “Repurposing Auranofin as a Lead Candidate for Treatment of Lymphatic Filariasis and Onchocerciasis” (PLoS Neglected Tropical Diseases, 2015).

Several values for one entry are separate records, joined by “and”; a condition that tells them apart may be missing. Equal entries are not always repeated.

Data set [1] deals with endogenous Brugia thioredoxin reductase. Put plainly: Thioredoxin reductase activity of lysates of worms recovered from gerbils treated in vivo. The protocol: (§1) Thioredoxin reductase activity of worm lysates was assayed using female B. malayi treated in vitro with either 0.3 μM, 0.1 μM, or 0.03 μM auranofin or 1% DMSO. After 5 hours of treatment, worm motility was measured using the Worminator, and then worms (24 in each group) were pooled, washed three times in PBS, and lysed by douncing in a glass homogenizer in assay buffer (Abcam Thioredoxin Reductase Assay kit, ab83463) with 1 mM PMSF. The crude lysates were centrifuged at 10,000 rcf for 15 minutes at 4°C to pellet insoluble material. The total protein concentrations of soluble lysates were measured using the Bradford assay. The soluble lysates were incubated for 20 minutes in assay buffer or assay buffer with a proprietary thioredoxin reductase specific inhibitor before adding a specific substrate, DTNB (5, 5′-dithiobis (2-nitrobenzoic) acid), and measuring activity at 20 second intervals for 40 minutes using the SpectraMax Plus Microplate Reader (Molecular Devices, Sunnyvale, CA) at λ = 412 nm. Lysates were tested in duplicate. TrxR activity was calculated based on the linear amount of TNB produced per minute per mg of total protein and adjusted for background activity from enzymes other than TrxR in the lysates.
Thioredoxin reductase activity was also analyzed in worms that were treated with auranofin or vehicle in vivo. […]

The next data set deals with adult female O. ochengi. Put plainly: Transmission electron microscopy of treated adult female O. ochengi. The format is cell-based, Onchocerca ochengi. The following applies: 10 μM, 7 days, vs untreated. The protocol:
Adult female B. pahangi worms were incubated with either 1 μM, 0.3 μM, or 0.1 μM auranofin, 10 μM flubendazole (as a positive control), or 1% DMSO overnight, then cut into 3 segments separating the anterior, middle and posterior sections. The middle sections were further cut into 1 mm sized pieces in fixative (2.5% glutaraldehyde and 2% paraformaldehyde in 0.1 M sodium cacodylate buffer, pH 7.3–7.4) and stored at 4°C. Middle sections were subsequently treated with 1% tannic acid for 1 hour, followed by three buffer washes before post fixation staining with 2% osmium tetroxide for 1 hour. The samples were washed three times in buffer before dehydration in an ethanol series. Worm sections were then infiltrated with propylene oxide, embedded in epon 812 resin and polymerized in a vacuum oven at 60°C overnight. Ultrathin sections were cut using an RMC MTX ultramicrotome with a Diatome diamond knife followed by post staining of the grids with saturated ethanolic uranyl acetate and Reynolds lead citrate. Samples were imaged on a FEI Tecnai 12 spirit TEM operated at 80 kV. A similar procedure was performed on adult female O. ochengi worm masses that were cultured for 7 days with 10 μM auranofin before fixation of cut pieces of the adult female mass. Untreated adult female masses cultured for 7 days and fixed by the same procedure served as the control.

Another data set has as its system adult male O. ochengi. Put plainly: Adult male Onchocerca ochengi motility scoring in vitro. Conditions: Day 5, motility. The class given is cell-based.
For a further data set, the target named is glutathione peroxidase. Also noted: method as in PMID 9685351. Conditions: higher IC50; cited from earlier work.
The subject of data set [2] is endogenous Brugia thioredoxin reductase. Put plainly: Thioredoxin reductase activity of lysates of female B. malayi treated in vitro. The format is biochemical, Brugia malayi. The following applies: 5 hours in vitro, female worms, soluble lysate. On the procedure: as §1
Data set [3] is described as follows: Plasma gold levels (elemental gold analysis) in Brugia infected gerbils. The class given is in vivo, Mongolian gerbils (Meriones unguiculatus). On the procedure: Animal studies were performed under IACUC approval #AN085723–02 to test the efficacy of auranofin in vivo. Male Mongolian gerbils (Meriones unguiculatus, Charles River Laboratories International, Inc., Wilmington, MA) were injected intraperitoneally (IP) with 300 B. pahangi L3 (Filariatech, Inc., Athens, GA) and treated 3 months post-infection. Auranofin was dissolved in 100% ethanol at 4 mg/mL and mixed 1:1 with PBS. Vehicle doses consisted of the same mixture of ethanol and PBS but without auranofin. Doses (up to 200 μl) were given to gerbils orally at 5 mg/kg body weight, BID weekdays and SID weekends for a total of 48 doses over 4 weeks.
Two studies (Study 1 and Study 2) were conducted using the same protocols and the same dosing schedule except that in Study 1, two gerbils from the auranofin treatment group and two gerbils from the vehicle group were treated for 14 days and were necropsied 2 hours after their last dose (interim necropsy) to determine plasma gold levels (from auranofin). The remaining gerbils in Study 1 were treated for 28 days and were necropsied 11, 14, or 16 days after the end of dosing. In Study 2, all gerbils were treated for 28 days and were necropsied 16 days after the end of dosing. For both of these in vivo studies, worms were collected from the gerbil’s peritoneal cavity, counted, sexed and examined under a dissecting microscope. For each study a two-tailed Student’s T-test assuming equal variance was conducted using Microsoft Excel to determine the statistical significance of the difference in mean worm retrieval between the auranofin treated and vehicle treated groups. Gerbil blood was collected by cardiac puncture and plasma was sent to NMS Labs, Willow Grove, PA to determine plasma gold levels (elemental gold analysis) by graphite furnace atomic absorption spectroscopy.

The test system of the next data set is O. volvulus L3. Put plainly: Onchocerca volvulus L3 molting inhibition in vitro. Conditions: O. volvulus L3, Day 6, inhibition of molting. The class given is cell-based. On the procedure:
L3 stage larvae previously collected and cryopreserved in Cameroon were rapidly thawed in a 37°C water bath and washed in incomplete media comprised of a 1:1 ratio of Medium NCTC-109 and IMDM + GlutaMax-I containing 1X glutamine, penicillin, and streptomycin (all from Gibco by Life Technologies, Grand Island, NY). The number of worms was adjusted to about 10 worms per 50 μL in complete medium containing 20% heat inactivated FCS. Worms were distributed into the wells of a 96-well plate containing 50 μL of 1.5 × 10^5 normal human PBMCs. 100 μL of 2X auranofin (final concentrations of 30 μM, 10 μM, 3 μM, 1 μM and 0.3 μM) were added to each well for a final volume of 200 μL. Each concentration was tested in triplicate. Controls included 0.05% DMSO in complete medium and complete medium only with neither DMSO nor compound added. The 96-well plates were then incubated at 37°C in a 5% CO2 incubator for 6 days, then molting was assessed using an inverted microscope. Molting was determined in each well by counting the presence of fourth-stage larvae (L4) and empty casts of the L3. The percent inhibition of molting was calculated based on the number of treated larvae that were able to molt in comparison to the number of control larvae that had successfully molted. Prism 4.0 for Windows was used to calculate IC50s.

Broadly, the IC50 is the point on the concentration scale where inhibition reaches its midpoint. Consider `CC[PH](CC)(CC)[Au][S][C@@H]1O[C@H](COC(C)=O)[C@@H](OC(C)=O)[C@H](OC(C)=O)[C@H]1OC(C)=O` [auranofin, 2,3,4,6-tetra-O-acetyl-1-thio-beta-D-glucopyranosato-S (triethylphosphine) gold], for which the “Thioredoxin reductase activity, percent of vehicle control” value in data set [1] (worms collected 16 days after the last dose from treated gerbils) is recorded as 51%. Further, in data set [1] (worms removed 16 days after the last dose from gerbils treated 28 days), the “reduction of endogenous thioredoxin reductase activity vs vehicle” value is 49%. Further, the “ultrastructure (TEM) of adult female O. ochengi” value in the data set with adult female O. ochengi is reported as “Numerous vacuoles with inclusion bodies were observed in the muscle tissue below the hypodermal chord”. The IC50 with adult male O. ochengi turned out to be 400 nM; with O. volvulus L3, 300 nM. The “IC50 relative to TrxR isolated from human placenta” value on glutathione peroxidase is listed as “about 1000 fold”. Besides, the “Thioredoxin reductase activity, percent of DMSO control” value in data set [2] (0.03 μM) amounted to 69%; in data set [2] (0.1 μM), 33%; in data set [2] (0.3 μM), 15%. The “mean plasma gold level” value amounted to 701 nM in data set [3] (Study 1, 16 days after the last dose) and 609 nM in data set [3] (Study 2, 16 days after the last dose). Also, the Plasma gold levels in data set [3] (Study #1, 2 hours after last dose, interim necropsy after 14 days of treatment, 5 mg/kg oral, individual gerbils, 5 mg/kg) was 1700 µg/L and 1000 µg/L; in data set [3] (Study #1, 11 days after last dose, 28 days of treatment), 270 µg/L; in data set [3] (Study #1, 14 days after last dose, 28 days of treatment), 340 µg/L; in data set [3] (Study #1, 16 days after last dose, individual gerbils, values less than 100 μg/L given as zero), 170 µg/L and 190 µg/L and 160 µg/L; in data set [3] (Study #2, 16 days after last dose, individual gerbils, values less than 100 μg/L given as zero) it was 130 µg/L and 190 µg/L and 160 µg/L. The Concentration of gold in data set [3] (Study #1, plasma, 2 hours after last dose, interim necropsy after 14 days of treatment, individual gerbils) is 5080 nM and 8630 nM and 8631 nM and 5077 nM; in data set [3] (Study #1, plasma, 11 days after last dose) it was 1371 nM; in data set [3] (Study #1, plasma, 14 days after last dose) it was 1726 nM; in data set [3] (Study #1, plasma, 16 days after last dose, individual gerbils, values less than 508 nM given as zero) it was 863 nM and 965 nM and 812 nM; in data set [3] (Study #2, plasma, 16 days after last dose, individual gerbils, values less than 508 nM given as zero), 660 nM and 965 nM and 812 nM. The “gold levels in blood” value in data set [3] (approximately 2 weeks after the last dose) was 0.66 µM.
